Test results as given in paper PMC12091851, “Replacing a Cereblon Ligand by a DDB1 and CUL4 Associated Factor 11 (DCAF11) Recruiter Converts a Selective Histone Deacetylase 6 PROTAC into a Pan‐Degrader” (Chemmedchem, 2025).

Biological target: HDAC2 (Homo sapiens, UniProt Q92769)
Assay: Immunoblot HDAC2 degradation in MM.1S cell lysates
Format: cell-based
Set-up: endogenous in cells; host or cells: MM.1S
Conditions: MM1.S, MM.1S cells, 24 h, read-out: maximal degradation (Dmax) HDAC2
Protocol: Figure 6 Examination of HDAC isoform degradation. MM.1S cells were treated with the indicated compounds (10 μM) or vehicle (DMSO) for 24 h. HDAC1, 2, 4, and 6 levels were analyzed by immunoblotting. (A) Representative images from a total of n=3 biological replicates. […]
The cell lysis was performed as descripted in 3.2. Simple Western Immunoassay. Samples were denatured by Laemmli 2× Concentrate (Catalog# S3401-10VL, Sigma-Aldrich) for 5 min at 95 °C, and Precision Plus Protein Unstained Standard was used as molecular weight marker (Catalog# 1610363, Bio-Rad, Hercules, CA, USA). SDS-PAGE was performed with 10 or 12% Mini-PROTEAN TGX Stain-Free Gel (Catalog# 458035, Bio -Rad) at 200 V for 50 min (Catalog# 458035, Bio -Rad).
Afterwards, proteins were transferred with the Trans -Blot Turbo Transfer System (Catalog# 1704150, Bio-Rad) to Immobilon-FL PVDF membranes (Catalog# IPFL00005, Mill ipore Merck, Burlington, MA, USA) at 1.0 A for 30 min and treated with 5% milk-powder solution for 1 h at room temperature under slight agitation. […] The ChemiDoc XRS+ System (Catalog# 1708265 , Bio-Rad) was used for detection and Image Lab Software 6.1 (Bio-Rad) for quantification. […]

Chain of HDAC2 (Q92769 whole entry): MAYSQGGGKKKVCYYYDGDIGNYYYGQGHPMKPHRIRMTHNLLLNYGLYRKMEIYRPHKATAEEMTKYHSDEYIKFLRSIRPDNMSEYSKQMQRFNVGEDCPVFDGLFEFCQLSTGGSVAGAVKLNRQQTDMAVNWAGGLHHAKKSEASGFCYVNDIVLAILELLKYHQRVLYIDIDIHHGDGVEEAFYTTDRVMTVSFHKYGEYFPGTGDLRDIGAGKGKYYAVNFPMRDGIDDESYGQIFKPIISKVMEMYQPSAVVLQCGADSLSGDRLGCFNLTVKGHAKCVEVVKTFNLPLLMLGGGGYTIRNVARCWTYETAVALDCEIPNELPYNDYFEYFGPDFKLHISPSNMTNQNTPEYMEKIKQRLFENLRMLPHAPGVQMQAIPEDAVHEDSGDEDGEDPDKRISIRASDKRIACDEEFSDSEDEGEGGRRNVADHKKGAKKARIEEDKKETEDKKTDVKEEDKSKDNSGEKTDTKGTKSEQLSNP

Dmax at 10 µM	SMILES
71 to 76%	O=C(CCCCCCNC(=O)c1ccc(NC(=O)CCCCCCCCCCCN(C(=O)CCl)C(C(=O)NCc2ccccc2)c2ccc(Cl)c(Cl)c2)cc1)NO (centres unmarked) [Compound 1j]
51%	O=C(CCCCCCNC(=O)c1ccc(N(C(=O)CCl)C(C(=O)NCc2ccccc2)c2ccc(Cl)c(Cl)c2)cc1)NO (centres unmarked) [Compound 2]
